Earlier results, collected in patent US20240139186A1, “METHODS OF TREATING HIV” (Janssen Sciences Ireland Unlimited Company, priority 2019, published 2024).

Conditions: adult and pediatric participants receiving abacavir in clinical studies

- hypersensitivity reactions reported, proportion of participants: approximately 5%
SMILES: Nc1nc(NC2CC2)c2ncn([C@H]3C=C[C@@H](CO)C3)c2n1 [abacavir]
